# Measured values from US20240300958A1, “COMPOUNDS AND THE USES AND PHARMACEUTICAL COMPOSITIONS THEREOF” (BEIJING YOUZHUJU NETWORK TECHNOLOGY CO. LTD., priority 2023, published 2024).
# Where two headings read alike, the source gives them in different places.
# Assays:
# Experiment in all cases: Kinase inhibition profile (HTRF / ADP Glo kinase assay)
# Format in all cases: biochemical
# BRAF = BRAF (Homo sapiens (Human), UniProt P15056)
# Procedure: (§1) HTRF kinase assay: 2×ATP and substrate solution as well as 2× kinase and metal solution were prepared with assay buffer. 25 nL of compound was transferred to 384-well assay plate by Echo 655. After centrifugation, 2.5 μL of 2× kinase/metal ion solution was added to the 384-well assay plate followed by incubation at 25° C. for 10 min. 2.5 μL of 2× substrate and ATP solution was added to the wells followed by incubation at 25° C. for 60 min. 2× XL665 and antibody solution was prepared with assay buffer. 5 μL of kinase detection reagent was added to the wells followed by incubation at 25° C. for 60 min. Fluorescence signals at 620 nm (Cryptate) and 665 nm (XL665) were read with a microtiter plate reader. ADP Glo kinase assay: 2×ATP and substrate solution as well as 2× kinase and metal solution were prepared with assay buffer. 20 nL of compound was transferred to 384-well assay plate by Echo 655. 2 μL of 2× kinase/metal ion solution was added followed by incubation at 25° C. for 10 min in the 384-well assay plate. 2 μL of 2× substrate and ATP solution was added to the wells followed by incubation at 25° C. for 60 min. 4 μL of ADP Glo reagent was added to the wells followed by incubation at 25° C. for 40 min. 8 μL of kinase test reagent was added to the wells followed by incubation at 25° C. for 40 min. The luminescence signals were recorded on a microtiter plate reader. Data analysis: the reaction control (0.5% DMSO) reading was set to 0% inhibition, and the background (10 μM positive control) reading was set to 100% inhibition, then the percent inhibition for each test solution was calculated and the results are shown in Table 2 and FIG. 3.
# MET = MET (Homo sapiens (Human), UniProt P08581)
# Procedure: as §1
# DYRK1B = DYRK1B (Homo sapiens (Human), UniProt Q9Y463)
# Procedure: as §1
# SGK = SGK (Homo sapiens (Human), UniProt O00141)
# Procedure: as §1
# CDK1/CycE1 = CDK1/CycE1 (Homo sapiens (Human), UniProt P06493)
# Procedure: as §1
# NEK1 = NEK1 (Homo sapiens (Human), UniProt Q96PY6)
# Procedure: as §1
# AurB = AurB (Homo sapiens (Human), UniProt Q96GD4)
# Procedure: as §1
# PIM1 = PIM1 (Homo sapiens (Human), UniProt P11309)
# Procedure: as §1
# EGFR = EGFR (Homo sapiens (Human), UniProt P00533)
# Procedure: as §1
# PKD2 = PKD2 (Homo sapiens (Human), UniProt Q9BZL6)
# Procedure: as §1
# SYK = SYK (Homo sapiens (Human), UniProt P43405)
# Procedure: as §1
# CLK1 = CLK1 (Homo sapiens (Human), UniProt P49759)
# Procedure: as §1
# BRSK2 = BRSK2 (Homo sapiens (Human), UniProt Q8IWQ3)
# Procedure: as §1
# ABL1 = ABL1 (Homo sapiens (Human), UniProt P00519)
# Procedure: as §1
# CK1γ2 = CK1γ2 (Homo sapiens (Human), UniProt P78368)
# Procedure: as §1
# CHK2 = CHK2 (Homo sapiens (Human), UniProt O96017)
# Procedure: as §1
# ALK 4 = ALK 4 (Homo sapiens (Human), UniProt P36896)
# Procedure: as §1
# PAK2 = PAK2 (Homo sapiens (Human), UniProt Q13177)
# Procedure: as §1
# CDK2/CycE1 = CDK2/CycE1 (Homo sapiens (Human), UniProt P24941)
# Procedure: as §1
# SRC = SRC (Homo sapiens (Human), UniProt P12931)
# Procedure: as §1
# p38α = p38α (Homo sapiens (Human), UniProt Q16539)
# Procedure: as §1
# EPHB4 = EPHB4 (Homo sapiens (Human), UniProt P54760)
# Procedure: as §1
# [1] = 1 uM Compound C1, read-out: % Inhibition (First measurement)
# [2] = 1 uM Compound C1, read-out: % Inhibition (Second measurement)
# [3] = 1 uM Compound C1, read-out: Average inhibition (%)
# Chain of CHK2 (O96017 whole entry, species assumed): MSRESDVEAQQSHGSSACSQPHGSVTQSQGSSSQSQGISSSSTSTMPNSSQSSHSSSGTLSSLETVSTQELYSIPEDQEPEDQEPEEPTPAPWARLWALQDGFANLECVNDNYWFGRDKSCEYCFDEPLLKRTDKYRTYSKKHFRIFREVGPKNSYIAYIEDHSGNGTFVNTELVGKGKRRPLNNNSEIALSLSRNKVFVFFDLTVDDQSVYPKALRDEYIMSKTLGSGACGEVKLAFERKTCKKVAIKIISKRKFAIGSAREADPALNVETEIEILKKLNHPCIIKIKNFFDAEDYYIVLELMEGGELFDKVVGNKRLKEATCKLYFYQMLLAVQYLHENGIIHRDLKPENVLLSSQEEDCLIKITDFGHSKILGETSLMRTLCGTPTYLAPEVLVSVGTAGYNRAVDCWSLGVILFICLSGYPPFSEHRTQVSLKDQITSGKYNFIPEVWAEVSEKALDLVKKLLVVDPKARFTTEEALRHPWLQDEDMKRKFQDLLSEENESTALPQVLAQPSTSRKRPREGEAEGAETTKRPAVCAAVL
# Chain of SGK (O00141 whole entry, species assumed): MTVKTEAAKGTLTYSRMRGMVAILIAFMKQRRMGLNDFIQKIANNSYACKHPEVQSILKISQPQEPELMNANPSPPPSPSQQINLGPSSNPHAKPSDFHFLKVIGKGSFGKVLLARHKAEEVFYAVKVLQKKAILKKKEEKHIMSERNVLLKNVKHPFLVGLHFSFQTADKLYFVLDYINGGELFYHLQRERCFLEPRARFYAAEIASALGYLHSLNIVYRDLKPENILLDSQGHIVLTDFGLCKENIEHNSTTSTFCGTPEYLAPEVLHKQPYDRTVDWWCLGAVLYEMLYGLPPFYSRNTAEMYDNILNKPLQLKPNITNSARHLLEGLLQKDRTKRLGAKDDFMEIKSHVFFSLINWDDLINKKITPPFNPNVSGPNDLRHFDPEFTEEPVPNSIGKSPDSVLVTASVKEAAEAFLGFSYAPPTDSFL
# Chain of MET (P08581 25-1390): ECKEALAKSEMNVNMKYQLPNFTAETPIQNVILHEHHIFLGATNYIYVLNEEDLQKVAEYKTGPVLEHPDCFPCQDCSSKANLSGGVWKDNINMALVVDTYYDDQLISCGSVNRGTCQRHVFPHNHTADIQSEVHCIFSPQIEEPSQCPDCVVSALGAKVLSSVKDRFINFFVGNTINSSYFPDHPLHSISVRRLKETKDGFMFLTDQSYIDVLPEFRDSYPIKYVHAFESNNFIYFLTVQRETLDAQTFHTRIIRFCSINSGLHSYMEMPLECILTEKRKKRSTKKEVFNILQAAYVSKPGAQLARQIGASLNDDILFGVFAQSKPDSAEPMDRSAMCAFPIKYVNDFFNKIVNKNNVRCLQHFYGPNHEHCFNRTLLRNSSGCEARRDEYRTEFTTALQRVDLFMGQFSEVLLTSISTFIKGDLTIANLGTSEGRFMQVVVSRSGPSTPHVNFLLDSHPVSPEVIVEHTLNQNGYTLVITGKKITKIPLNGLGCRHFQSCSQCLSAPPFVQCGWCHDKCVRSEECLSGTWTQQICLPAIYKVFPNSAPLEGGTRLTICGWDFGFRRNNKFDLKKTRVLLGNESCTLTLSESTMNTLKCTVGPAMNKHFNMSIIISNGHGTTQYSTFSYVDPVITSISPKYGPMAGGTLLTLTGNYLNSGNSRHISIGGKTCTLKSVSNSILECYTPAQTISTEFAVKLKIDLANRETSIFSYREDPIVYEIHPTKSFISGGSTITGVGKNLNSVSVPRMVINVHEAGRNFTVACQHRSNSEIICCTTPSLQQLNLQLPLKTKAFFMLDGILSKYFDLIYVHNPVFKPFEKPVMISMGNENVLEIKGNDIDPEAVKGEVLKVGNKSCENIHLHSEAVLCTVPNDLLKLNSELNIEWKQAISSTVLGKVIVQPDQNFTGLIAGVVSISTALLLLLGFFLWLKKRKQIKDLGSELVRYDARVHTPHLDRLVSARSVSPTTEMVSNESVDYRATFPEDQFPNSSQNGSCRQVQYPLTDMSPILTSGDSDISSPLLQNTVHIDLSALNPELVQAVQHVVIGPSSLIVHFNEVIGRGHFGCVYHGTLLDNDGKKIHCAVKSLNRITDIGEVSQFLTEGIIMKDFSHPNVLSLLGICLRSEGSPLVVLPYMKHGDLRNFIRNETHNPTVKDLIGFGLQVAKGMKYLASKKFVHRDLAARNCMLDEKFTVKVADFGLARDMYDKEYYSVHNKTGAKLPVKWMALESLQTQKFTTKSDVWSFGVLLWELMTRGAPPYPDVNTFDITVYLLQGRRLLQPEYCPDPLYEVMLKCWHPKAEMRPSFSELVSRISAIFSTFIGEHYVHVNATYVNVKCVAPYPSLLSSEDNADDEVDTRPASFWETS
# Chain of BRAF (P15056 whole entry, species assumed): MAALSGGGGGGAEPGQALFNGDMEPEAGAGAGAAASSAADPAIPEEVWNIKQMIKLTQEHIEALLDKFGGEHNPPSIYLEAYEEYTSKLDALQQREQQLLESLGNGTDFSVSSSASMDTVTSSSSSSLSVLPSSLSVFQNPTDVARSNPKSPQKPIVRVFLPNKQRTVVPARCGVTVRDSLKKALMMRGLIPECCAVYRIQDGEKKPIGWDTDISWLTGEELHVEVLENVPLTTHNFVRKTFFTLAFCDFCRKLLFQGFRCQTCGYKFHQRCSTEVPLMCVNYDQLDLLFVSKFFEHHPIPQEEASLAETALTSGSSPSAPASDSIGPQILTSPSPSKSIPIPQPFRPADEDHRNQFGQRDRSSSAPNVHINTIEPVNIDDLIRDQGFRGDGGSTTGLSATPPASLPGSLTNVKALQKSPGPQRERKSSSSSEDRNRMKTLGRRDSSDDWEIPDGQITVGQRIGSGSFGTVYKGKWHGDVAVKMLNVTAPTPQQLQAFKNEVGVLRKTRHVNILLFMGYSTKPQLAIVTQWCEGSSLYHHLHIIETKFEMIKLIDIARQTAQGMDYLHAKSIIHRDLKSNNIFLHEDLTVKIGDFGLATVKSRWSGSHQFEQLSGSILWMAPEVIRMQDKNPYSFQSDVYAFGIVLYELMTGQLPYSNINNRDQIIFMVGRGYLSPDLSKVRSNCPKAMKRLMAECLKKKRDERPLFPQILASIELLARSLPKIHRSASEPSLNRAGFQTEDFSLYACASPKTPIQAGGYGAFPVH
# Chain of ALK 4 (P36896 24-505, species assumed): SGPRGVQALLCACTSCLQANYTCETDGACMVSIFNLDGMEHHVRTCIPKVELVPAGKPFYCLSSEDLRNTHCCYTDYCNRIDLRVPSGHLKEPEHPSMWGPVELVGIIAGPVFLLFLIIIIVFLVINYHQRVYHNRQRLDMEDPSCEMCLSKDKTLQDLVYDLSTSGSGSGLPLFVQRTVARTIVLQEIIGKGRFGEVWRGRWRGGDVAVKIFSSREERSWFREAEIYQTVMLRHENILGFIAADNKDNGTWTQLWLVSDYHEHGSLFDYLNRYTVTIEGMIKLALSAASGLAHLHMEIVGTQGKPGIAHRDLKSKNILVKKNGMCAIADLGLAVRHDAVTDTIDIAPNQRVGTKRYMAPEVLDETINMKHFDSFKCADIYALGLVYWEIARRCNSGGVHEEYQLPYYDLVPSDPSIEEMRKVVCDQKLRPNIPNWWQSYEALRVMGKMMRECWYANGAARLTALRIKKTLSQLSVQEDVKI
# Chain of PAK2 (Q13177 whole entry, species assumed): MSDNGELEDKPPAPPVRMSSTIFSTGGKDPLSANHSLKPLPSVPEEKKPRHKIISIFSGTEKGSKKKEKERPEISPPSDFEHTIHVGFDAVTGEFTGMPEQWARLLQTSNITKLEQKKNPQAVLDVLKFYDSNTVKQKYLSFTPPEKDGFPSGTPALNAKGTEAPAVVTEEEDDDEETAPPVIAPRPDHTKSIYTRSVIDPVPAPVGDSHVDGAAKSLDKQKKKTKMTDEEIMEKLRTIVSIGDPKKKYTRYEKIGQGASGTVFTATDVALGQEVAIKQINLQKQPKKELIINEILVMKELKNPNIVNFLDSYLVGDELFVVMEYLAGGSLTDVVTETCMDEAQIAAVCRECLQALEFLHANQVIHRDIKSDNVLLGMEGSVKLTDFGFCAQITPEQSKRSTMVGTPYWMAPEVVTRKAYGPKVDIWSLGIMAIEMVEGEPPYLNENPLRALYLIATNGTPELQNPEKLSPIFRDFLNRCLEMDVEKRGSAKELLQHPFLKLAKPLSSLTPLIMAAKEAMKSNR
# Chain of PKD2 (Q9BZL6 whole entry): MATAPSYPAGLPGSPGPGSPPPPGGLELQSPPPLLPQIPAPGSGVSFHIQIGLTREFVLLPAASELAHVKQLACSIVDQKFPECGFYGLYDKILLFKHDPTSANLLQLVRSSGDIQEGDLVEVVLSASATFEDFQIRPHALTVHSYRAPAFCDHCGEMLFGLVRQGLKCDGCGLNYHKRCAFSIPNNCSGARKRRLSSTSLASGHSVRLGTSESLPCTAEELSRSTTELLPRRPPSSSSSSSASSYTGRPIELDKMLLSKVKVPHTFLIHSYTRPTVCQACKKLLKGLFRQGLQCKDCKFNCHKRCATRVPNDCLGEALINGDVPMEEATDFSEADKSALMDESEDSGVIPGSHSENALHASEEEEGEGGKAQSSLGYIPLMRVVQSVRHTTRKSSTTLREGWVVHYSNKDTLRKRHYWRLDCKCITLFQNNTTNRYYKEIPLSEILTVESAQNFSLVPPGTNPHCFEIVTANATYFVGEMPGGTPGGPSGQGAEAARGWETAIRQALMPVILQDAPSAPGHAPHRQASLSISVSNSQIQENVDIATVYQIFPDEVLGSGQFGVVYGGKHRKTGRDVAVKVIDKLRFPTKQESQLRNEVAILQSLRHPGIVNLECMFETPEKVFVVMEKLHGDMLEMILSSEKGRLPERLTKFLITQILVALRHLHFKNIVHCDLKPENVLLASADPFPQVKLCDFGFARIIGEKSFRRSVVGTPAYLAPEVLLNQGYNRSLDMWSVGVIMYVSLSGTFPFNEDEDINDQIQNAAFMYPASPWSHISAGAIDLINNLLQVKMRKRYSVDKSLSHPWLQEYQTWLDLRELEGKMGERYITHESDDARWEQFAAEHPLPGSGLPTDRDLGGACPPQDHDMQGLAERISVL
compound,measurement,setting,value
"Cc1ccc(C(=O)Nc2ccccn2)cc1C#Cc1cnc2cc(C3=CCCCC3)cnn12 [Compound C1, 3-{2-[7-(cyclohex-1-en-1-yl)imidazo[1,2-b]pyridazin-3-yl]ethynyl}-4-methyl-N-(pyridin-2-yl)benzamide]",inhibition at 1 µM,BRAF; [1],-6.73%
same,inhibition at 1 µM,BRAF; [2],-23.9%
same,inhibition at 1 µM,BRAF; [3],-15.3%
same,inhibition at 1 µM,MET; [1],-11.9%
same,inhibition at 1 µM,MET; [2],-15.8%
same,inhibition at 1 µM,MET; [3],-13.9%
same,inhibition at 1 µM,DYRK1B; [1],4.14%
same,inhibition at 1 µM,DYRK1B; [2],9.03%
same,inhibition at 1 µM,DYRK1B; [3],6.58%
same,inhibition at 1 µM,SGK; [1],-8.79%
same,inhibition at 1 µM,SGK; [2],-6.61%
same,inhibition at 1 µM,SGK; [3],-7.7%
same,inhibition at 1 µM,CDK1/CycE1; [1],11.9%
same,inhibition at 1 µM,CDK1/CycE1; [2],20.1%
same,inhibition at 1 µM,CDK1/CycE1; [3],16%
same,inhibition at 1 µM,NEK1; [1],14.6%
same,inhibition at 1 µM,NEK1; [2],8.97%
same,inhibition at 1 µM,NEK1; [3],11.8%
same,inhibition at 1 µM,AurB; [1],19.7%
same,inhibition at 1 µM,AurB; [2],13.3%
same,inhibition at 1 µM,AurB; [3],16.5%
same,inhibition at 1 µM,PIM1; [1],-3.17%
same,inhibition at 1 µM,PIM1; [2],-4.27%
same,inhibition at 1 µM,PIM1; [3],-3.72%
same,inhibition at 1 µM,EGFR; [1],-6.86%
same,inhibition at 1 µM,EGFR; [2],1.78%
same,inhibition at 1 µM,EGFR; [3],-2.54%
same,inhibition at 1 µM,PKD2; [1],-7.86%
same,inhibition at 1 µM,PKD2; [2],-6.58%
same,inhibition at 1 µM,PKD2; [3],-7.22%
same,inhibition at 1 µM,SYK; [1],5.21%
same,inhibition at 1 µM,SYK; [2],-2.04%
same,inhibition at 1 µM,SYK; [3],1.59%
same,inhibition at 1 µM,CLK1; [1],2.98%
same,inhibition at 1 µM,CLK1; [2],12.3%
same,inhibition at 1 µM,CLK1; [3],7.67%
same,inhibition at 1 µM,BRSK2; [1],0.46%
same,inhibition at 1 µM,BRSK2; [2],-0.94%
same,inhibition at 1 µM,BRSK2; [3],-0.24%
same,inhibition at 1 µM,ABL1; [1],43.2%
same,inhibition at 1 µM,ABL1; [2],50.7%
same,inhibition at 1 µM,ABL1; [3],47%
same,inhibition at 1 µM,CK1γ2; [1],-6.26%
same,inhibition at 1 µM,CK1γ2; [2],-6.88%
same,inhibition at 1 µM,CK1γ2; [3],-6.57%
same,inhibition at 1 µM,CHK2; [1],0.35%
same,inhibition at 1 µM,CHK2; [2],7.34%
same,inhibition at 1 µM,CHK2; [3],3.85%
same,inhibition at 1 µM,ALK 4; [1],-6.24%
same,inhibition at 1 µM,ALK 4; [2],14.8%
same,inhibition at 1 µM,ALK 4; [3],4.25%
same,inhibition at 1 µM,PAK2; [1],2.23%
same,inhibition at 1 µM,PAK2; [2],12.1%
same,inhibition at 1 µM,PAK2; [3],7.17%
same,inhibition at 1 µM,CDK2/CycE1; [1],0.53%
same,inhibition at 1 µM,CDK2/CycE1; [2],12.6%
same,inhibition at 1 µM,CDK2/CycE1; [3],6.56%
same,inhibition at 1 µM,SRC; [1],-0.76%
same,inhibition at 1 µM,SRC; [2],-1.13%
same,inhibition at 1 µM,SRC; [3],-0.94%
same,inhibition at 1 µM,p38α; [1],3.39%
same,inhibition at 1 µM,p38α; [2],-3.27%
same,inhibition at 1 µM,p38α; [3],0.06%
same,inhibition at 1 µM,EPHB4; [1],3.8%
same,inhibition at 1 µM,EPHB4; [2],-8.27%
same,inhibition at 1 µM,EPHB4; [3],-2.24%
